Measurements taken from US20080249028A1, “Thyrotropin-Releasing Hormone Analogs and Method of Use” (Roger Williams Hospital, priority 2005, published 2008).

Assays:
Sprague-Dawley rats = assay: Blood glucose level in rats given compound alone (no STZ); assay type: in vivo, rat; details: Table 1, rats, TRH alone (no STZ)
Protocol: (§1) Male Sprague-Dawley rats (S.D. 180 g) were used in the experiments described below. The animals lived in individual metabolism cages with free access to food and water, while food and body weight were monitored daily. Peripheral blood samples (approximately 10 μl) were obtained from the tail vein of the animals. The blood glucose levels were measured by using Accu-Check Blood Glucose Meter (Roche Diagnosetics Corporation, IN). Beta cell function was evaluated once every two days over a 2-week period by an individual unaware of the treatment group. Animals were evaluated separately for blood glucose level, food intake and body weight. The endpoint check was pancreatic insulin content and pancreatic beta cell number.
(§2) The figures shown in the tables are blood glucose levels (mg/dL; i.e., milligrams of glucose per deciliter of blood).

[1] = tested on: STZ-induced hyperglycemic rats; assay: Serum insulin assay after TRH treatment of STZ rats; assay type: in vivo, rat; details: following TRH vs. control and STZ groups
Protocol: (§3) Partial pancreatic tissue was extracted with 1 N glacial acetic acid for insulin assay by ELISA. Four animals were used in each group. Each pancreas was placed in head (central) to tail (peripheral) orientation and immediately snap frozen and kept at −80° C. This orientation of the tissue provided an opportunity for sectioning of equal surface areas when cutting the frozen tissue. In this manner, the pancreas sections included every portion of the pancreas in parallel, while avoiding variations caused by sectioning from different areas. The HE histological staining was performed on serial sections (5 um thick) and islets were counted in 10 slides for each sample and standardized by dividing the total area (islets/cm^2).
A group of animals were given a single dose i.p. of 20 μg/kg BW or […] of TRH or TRH analogs on the seventh day or on the third day after STZ administration, which allowed for examination of the TRH/TRH analog treatment and the degree of pancreatic damage in the diabetic animal. Again, food intake, body weight and blood glucose levels of each of the animals were monitored. When hyperglycemia was determined to be reversed by TRH/TRH analog, the animal was sacrificed. Blood samples were collected for insulin assay and the pancreas and muscles were collected for further pathological and physiological tests.

[2] = tested on: pancreatic beta cell function; assay: Beta cell function evaluation after pancreatic damage; assay type: in vivo, rat; details: at 2 weeks after pancreatic damage
Protocol: as §1

rat = details: injection of TRH into the rat brain; cited from earlier work
[3] = tested on: STZ-induced hyperglycemic rats; assay: Effect on STZ-induced hyperglycemia in rats (blood glucose level); assay type: in vivo, rat; details: for blood glucose level: Table 1, rats, STZ + compound i.p.
Protocol: as §1
Streptozotocin (STZ) was used to chemically induce damage in pancreatic function in order to create a hyperglycemic state in the animals. Eight-week old male Sprague-Dawley rats (200.00 g±10 g) were injected with STZ by intraperitoneal (i.p.) (65 mg/kg body weight (BW)) to create hyperglycemic animals (24 to 48 hours). Blood glucose levels were monitored daily. Onset of hyperglycemia occurred usually about 24 to 48 hours after STZ administration.
[…] the seventh day or on the third day after STZ administration, which allowed for examination of the TRH/TRH analog treatment and the degree of pancreatic damage in the diabetic animal. Again, food intake, body weight and blood glucose levels of each of the animals were monitored. When hyperglycemia was determined to be reversed by TRH/TRH analog, the animal was sacrificed. Blood samples were collected for insulin assay and the pancreas and muscles were collected for further pathological and physiological tests.
as §2

[4] = in vivo; cited from earlier work
pancreatic islets = assay: Pancreatic islet count (HE histological staining); assay type: in vivo, rat; details: by activation of the TRH receptor
Protocol: as §3

## NC(=O)[C@@H]1CCCN1C(=O)[C@H](Cc1cnc[nH]1)NC(=O)[C@@H]1CCC(=O)N1 [TRH, L-pyroglutamyl-L-histidyl-L-prolineamide, reference compound]
Sprague-Dawley rats; Day 1
  blood glucose level: 101.5 mg/dL
Sprague-Dawley rats; Day 2
  blood glucose level: 125 mg/dL
Sprague-Dawley rats; Day 4
  blood glucose level: 125 mg/dL
Sprague-Dawley rats; Day 9
  blood glucose level: 96 mg/dL
Sprague-Dawley rats; Day 15
  blood glucose level: 82.5 mg/dL
Sprague-Dawley rats; Day 22
  blood glucose level: 89 mg/dL
Sprague-Dawley rats; Day 29
  blood glucose level: 74.5 mg/dL
Sprague-Dawley rats; Day 39
  blood glucose level: 80 mg/dL
Sprague-Dawley rats; Day 43
  blood glucose level: 90.5 mg/dL
Sprague-Dawley rats; Day 50
  blood glucose level: 93 mg/dL
Sprague-Dawley rats; Day 53
  blood glucose level: 78 mg/dL
Sprague-Dawley rats; Day 56
  blood glucose level: 75 mg/dL
Sprague-Dawley rats; Day 60
  blood glucose level: 67 mg/dL
Sprague-Dawley rats; Day 64
  blood glucose level: 85 mg/dL
[1]
  levels of insulin in the serum: increased
[2]
  pancreatic endocrine outcome: improved
rat
  blood glucose levels: reduce blood glucose levels
[3]; TRH administration on day 3 following STZ injection, after 6 days
  hyperglycemia: reversed the hyperglycemia
[3]; Day 1
  blood glucose level: 107.8 mg/dL
[3]; Day 2
  blood glucose level: 321.4 mg/dL
[3]; Day 4
  blood glucose level: 448.8 mg/dL
[3]; Day 9
  blood glucose level: 191.2 mg/dL
[3]; Day 15
  blood glucose level: 182.6 mg/dL
[3]; Day 22
  blood glucose level: 380.2 mg/dL
[3]; Day 29
  blood glucose level: 337 mg/dL
[3]; Day 39
  blood glucose level: 283.4 mg/dL
[3]; Day 43
  blood glucose level: 220.4 mg/dL
[3]; Day 50
  blood glucose level: 182 mg/dL
[3]; Day 53
  blood glucose level: 151 mg/dL
[3]; Day 56
  blood glucose level: 139 mg/dL
[3]; Day 60
  blood glucose level: 180 mg/dL
[3]; Day 64
  blood glucose level: 156 mg/dL
[3]; rat treated with TRH after STZ-induced hyperglycemia, over a two month time period
  glucose levels over time: continually decreased
[3]; rats, after seven days of TRH and STZ treatment
  STZ induced hyperglycemia: normalized
[4]
  plasma half-life: 4 to 5 min
Pancreatic islets
  number of pancreatic islets: increases
